From patent publication US20120214784A1, “SPIROPIPERIDINE COMPOUNDS AS ORL-1 RECEPTOR ANTAGONISTS” (ELI LILLY AND COMPANY, priority 2009, published 2012)

Columns and labels:
[1] = molecular target: T1, cloned human ORL1/nociceptin receptors (Homo sapiens, UniProt P41146); experiment: Functional blockade of agonist-mediated G-protein activation, GTP-γ-[35S] binding; type: biochemical
T1 construct: expressed in transfected cells
Source text: Agonist-mediated stimulation of G-protein coupled receptors results in the activation of membrane associated Gαβγ-protein heterotrimer complexes, and represents the first step in the transduction of extracellular signals to modification of intracellular pathways. The first step in activation of receptor-mediated activation of Gαβγ-proteins heterotrimer is the exchange of Gα subunit bound guanosine diphoshpate (GDP) for guanosine triphosphate (GTP). The binding of GTP to the Gα subunit causes dissociation of the heterotrimer subunits, Gβ and Gγ, resulting in the modulation of several intracellular signaling cascades. Measurement of receptor-mediated G-protein activation can be measured using the non-hydrolyzable radiolabeled analog of GTP, GTP-γ-[35S]. Utilizing this methodology, antagonist affinity (Kb) is measured in membranes expressing cloned human ORL1/nociceptin receptors using a GTP-γ-[35S] binding assay according to previously described protocols with minor modifications (DeLapp et al., J Pharmacol Exp Ther. 1999 May; 289(2):946-55; Ozaki et al., Eur J Pharmacol. 2000 Aug. 18; 402(1-2):45-53). Assays are conducted in a 200-μl volume with the following buffer composition: 100 mM NaCl, 20 mM HEPES, 5 mM MgCl2, 1 mM EDTA, 0.1% BSA, 3 μM GDP, 0.5 nM [^35S]GTPγS. ORL1 receptor membrane suspension is added at a concentration of 20 μg protein per well and receptor stimulation is achieved using 300 nM nociceptin/OFQ. Wheat germ agglutinin coated SPA beads (Amersham, Arlington Hts., Ill.) are added at 1 mg per well to detect membrane-bound [^35S]GTPγS. Plates are sealed and incubated for 2 hr. at room temperature. Plates are then placed at 4° C. overnight to allow the SPA beads to settle and then counted in a Wallac Microbeta. Specific [^35S]GTPγS binding is determined as the difference in CPM observed in the absence and presence of 10 μM unlabeled GTPγS. Data are plotted as the percent of specific [^35S]GTPγS bound. Curves are plotted as the percent of specific binding and IC50 values are determined using a sigmoidal dose response curve with variable slope. Antagonist affinity (Kb) is estimated according to DeLapp et al., 1999 using a modification of the equation of Cheng and Prusoff (1973) where Kb=IC50×(1+D×EC50^−1)^−1.

5-HT2A = 5-HT2A (Homo sapiens, UniProt P28223); experiment: Radioligand binding selectivity; conditions: 5-HT2A; read-out: Ki
Experimental: (§1) Radioligand binding assays are commonly used to determine the affinity (Ki) or potency of a compound to bind to a particular receptor or target protein. A filtration-based [3H]-OFQ/nociceptin receptor binding assay is developed based on previous assay formats (Ardati A, Henningsen R A, Higelin J, Reinscheid R K, Civelli O, Monsma F J Jr. Mol. Pharmacol. 1997 May; 51(5):816-24.) with minor modifications. [3H]-OFQ/nociceptin binding assays are carried out in deep-well 96-well plates. [^3H]OFQ (final assay concentration 0.2 nM) competition studies are carried out with 5-10 μg of membrane protein (isolated from Chinese hamster ovary cells (CHO cells) expressing cloned human ORL1 receptors) in a final assay volume of 0.5 mL of buffer containing 20 mM HEPES, pH 7.4, 5 mM MgCl2, 1 mM EGTA, 100 mM NaCl, 0.1% bovine serum albumin. Samples are incubated for 60 min. at room temperature, which is found to be optimal for competition assays. The assays are terminated by filtration through glass fiber filters (Wallac filtermat A) [pretreated with 0.3% polyethylenimine (Sigma) for 1 hr] on a Tometc cell harvester, and the filters are washed three times with 5 mL of ice-cold 50 mM Tris.HCl, pH 7.4. Filtermats are then dried and imbedded with Meltilex scintillant A and the radioactivity counted in a Wallac Microbeta scintillation counter. Specific binding is determined by displacement with 100 nM unlabeled nociceptin. Curves are plotted as the percent of specific binding and IC50 values are determined using a sigmoidal dose response curve with variable slope. K, values are calculated from the IC50 by the equation of Cheng and Prusoff (Cheng, Y. C., and Prusoff, W. H., Biochem. Pharmacol. 22, 3099-3108 (1973)) where Ki=IC50×(1+D×Kd^−1)^−1. Similarly, Ki for the mu, kappa and delta opioids, serotonin, adrenergic, and muscarinic receptors may be determined using membranes expressing the desired receptor and appropriate corresponding radioligand competitor molecules.

5-HT1F = 5-HT1F (Homo sapiens, UniProt P30939); experiment: Radioligand binding selectivity
Sequence of 5-HT1F (P30939 whole entry, species assumed): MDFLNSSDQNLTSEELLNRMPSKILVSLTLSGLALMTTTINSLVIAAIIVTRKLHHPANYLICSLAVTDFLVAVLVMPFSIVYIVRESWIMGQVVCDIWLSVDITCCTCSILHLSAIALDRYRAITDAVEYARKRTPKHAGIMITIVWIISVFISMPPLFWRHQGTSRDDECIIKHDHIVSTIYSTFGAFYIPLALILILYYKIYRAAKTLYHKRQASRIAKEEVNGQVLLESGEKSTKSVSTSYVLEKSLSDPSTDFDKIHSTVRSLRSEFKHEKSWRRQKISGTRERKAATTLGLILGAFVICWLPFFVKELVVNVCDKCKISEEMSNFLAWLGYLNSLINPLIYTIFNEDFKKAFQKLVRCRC
Experimental: as §1

5-HT2B = 5-HT2B (Homo sapiens, UniProt P41595); experiment: Radioligand binding selectivity
Sequence of 5-HT2B (P41595 whole entry, species assumed): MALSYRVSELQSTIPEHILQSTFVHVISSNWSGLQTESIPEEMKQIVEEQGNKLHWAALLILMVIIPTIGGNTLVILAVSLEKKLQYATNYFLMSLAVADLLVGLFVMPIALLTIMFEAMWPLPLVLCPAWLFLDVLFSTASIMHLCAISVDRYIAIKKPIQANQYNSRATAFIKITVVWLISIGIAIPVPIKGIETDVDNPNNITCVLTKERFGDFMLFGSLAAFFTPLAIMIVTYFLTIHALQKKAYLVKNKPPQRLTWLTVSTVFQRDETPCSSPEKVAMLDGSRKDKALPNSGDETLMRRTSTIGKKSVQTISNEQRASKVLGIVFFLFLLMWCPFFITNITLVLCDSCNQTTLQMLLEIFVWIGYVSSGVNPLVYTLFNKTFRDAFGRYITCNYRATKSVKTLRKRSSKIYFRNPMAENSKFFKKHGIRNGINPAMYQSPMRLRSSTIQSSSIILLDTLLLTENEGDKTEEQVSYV
Experimental: as §1

5-HT1D = 5-HT1D (Homo sapiens, UniProt P28221); experiment: Radioligand binding selectivity; conditions: 5-HT1D; read-out: Ki
Experimental: as §1

5-HT4 = 5-HT4 (Homo sapiens, UniProt Q13639); experiment: Radioligand binding selectivity; conditions: 5-HT4; read-out: Ki
Sequence of 5-HT4 (Q13639 whole entry, species assumed): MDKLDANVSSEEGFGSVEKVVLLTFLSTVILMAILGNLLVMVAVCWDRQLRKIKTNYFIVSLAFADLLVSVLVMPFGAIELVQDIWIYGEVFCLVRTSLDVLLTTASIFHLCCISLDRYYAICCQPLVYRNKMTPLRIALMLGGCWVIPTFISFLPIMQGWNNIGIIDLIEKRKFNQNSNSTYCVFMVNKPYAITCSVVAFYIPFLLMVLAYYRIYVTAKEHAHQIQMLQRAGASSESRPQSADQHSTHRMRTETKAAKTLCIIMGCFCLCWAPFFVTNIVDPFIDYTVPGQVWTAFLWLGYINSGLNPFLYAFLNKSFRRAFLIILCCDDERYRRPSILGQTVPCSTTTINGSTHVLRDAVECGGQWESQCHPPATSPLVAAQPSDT
Experimental: as §1

5-HT2C = 5-HT2C (Homo sapiens, UniProt P28335); experiment: Radioligand binding selectivity; conditions: 5-HT2C; read-out: Ki
Sequence of 5-HT2C (P28335 33-458, species assumed): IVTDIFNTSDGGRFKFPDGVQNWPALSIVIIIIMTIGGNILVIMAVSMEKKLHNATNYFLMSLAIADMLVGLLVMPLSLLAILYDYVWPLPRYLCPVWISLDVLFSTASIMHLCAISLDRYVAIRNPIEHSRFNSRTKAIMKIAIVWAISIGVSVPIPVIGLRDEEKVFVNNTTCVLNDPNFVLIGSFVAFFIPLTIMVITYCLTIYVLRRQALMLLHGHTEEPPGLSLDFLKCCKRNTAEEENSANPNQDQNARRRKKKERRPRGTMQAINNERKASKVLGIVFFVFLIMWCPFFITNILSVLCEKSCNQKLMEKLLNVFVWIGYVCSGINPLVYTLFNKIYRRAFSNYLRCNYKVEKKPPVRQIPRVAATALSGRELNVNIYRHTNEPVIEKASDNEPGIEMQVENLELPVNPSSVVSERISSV
Experimental: as §1

5-HT6 = 5-HT6 (Homo sapiens, UniProt P50406); experiment: Radioligand binding selectivity; conditions: 5-HT6; read-out: Ki
Sequence of 5-HT6 (P50406 whole entry, species assumed): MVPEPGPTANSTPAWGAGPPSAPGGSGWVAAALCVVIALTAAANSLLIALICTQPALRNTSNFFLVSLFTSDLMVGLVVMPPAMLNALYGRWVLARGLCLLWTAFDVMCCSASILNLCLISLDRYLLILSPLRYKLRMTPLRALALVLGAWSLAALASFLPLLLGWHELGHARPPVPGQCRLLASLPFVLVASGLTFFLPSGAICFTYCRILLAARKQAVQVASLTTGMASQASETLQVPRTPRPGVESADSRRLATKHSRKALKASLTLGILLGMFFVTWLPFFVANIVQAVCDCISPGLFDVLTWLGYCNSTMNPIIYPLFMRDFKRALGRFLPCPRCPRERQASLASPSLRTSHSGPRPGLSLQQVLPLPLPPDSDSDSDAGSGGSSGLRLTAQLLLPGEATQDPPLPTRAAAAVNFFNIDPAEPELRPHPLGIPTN
Experimental: as §1

5-HT1B = 5-HT1B (Homo sapiens, UniProt P28222); experiment: Radioligand binding selectivity; conditions: 5-HT1B; read-out: Ki
Experimental: as §1

5-HT5 = 5-HT5 (Homo sapiens, UniProt P47898); experiment: Radioligand binding selectivity; conditions: 5-HT5; read-out: Ki
Experimental: as §1

5-HT1E = 5-HT1E (Homo sapiens, UniProt P28566); experiment: Radioligand binding selectivity; conditions: 5-HT1E; read-out: Ki
Sequence of 5-HT1E (P28566 whole entry, species assumed): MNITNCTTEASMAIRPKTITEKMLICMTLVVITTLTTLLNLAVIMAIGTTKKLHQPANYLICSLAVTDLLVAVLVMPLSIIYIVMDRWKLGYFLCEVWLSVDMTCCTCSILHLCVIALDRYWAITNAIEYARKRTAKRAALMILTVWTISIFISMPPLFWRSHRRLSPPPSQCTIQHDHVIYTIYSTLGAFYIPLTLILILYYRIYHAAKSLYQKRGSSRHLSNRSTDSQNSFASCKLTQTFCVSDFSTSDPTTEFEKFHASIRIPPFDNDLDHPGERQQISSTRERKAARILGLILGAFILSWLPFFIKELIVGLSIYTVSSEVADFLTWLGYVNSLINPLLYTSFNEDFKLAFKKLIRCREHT
Experimental: as §1

5-HT7 = 5-HT7 (Homo sapiens, UniProt P34969); experiment: Radioligand binding selectivity; conditions: 5-HT7; read-out: Ki
Sequence of 5-HT7 (P34969 whole entry, species assumed): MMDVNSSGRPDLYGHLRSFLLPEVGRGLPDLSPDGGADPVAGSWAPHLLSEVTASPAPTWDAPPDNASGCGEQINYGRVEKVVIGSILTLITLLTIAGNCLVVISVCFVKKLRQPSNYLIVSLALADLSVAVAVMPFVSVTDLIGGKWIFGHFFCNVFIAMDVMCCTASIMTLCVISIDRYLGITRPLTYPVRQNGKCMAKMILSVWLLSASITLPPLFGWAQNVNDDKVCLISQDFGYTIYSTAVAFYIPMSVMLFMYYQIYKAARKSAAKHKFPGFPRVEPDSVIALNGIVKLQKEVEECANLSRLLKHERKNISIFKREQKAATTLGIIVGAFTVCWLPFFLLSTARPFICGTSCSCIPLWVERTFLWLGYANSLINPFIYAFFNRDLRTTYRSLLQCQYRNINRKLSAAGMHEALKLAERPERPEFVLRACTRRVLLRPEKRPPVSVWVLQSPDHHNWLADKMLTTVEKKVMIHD
Experimental: as §1

[2] = molecular target: human ERG (hERG) K+ channel (Homo sapiens, UniProt Q12809); experiment: hERG channel [3H]astemizole binding assay
Sequence of human ERG (hERG) K+ channel (Q12809 whole entry): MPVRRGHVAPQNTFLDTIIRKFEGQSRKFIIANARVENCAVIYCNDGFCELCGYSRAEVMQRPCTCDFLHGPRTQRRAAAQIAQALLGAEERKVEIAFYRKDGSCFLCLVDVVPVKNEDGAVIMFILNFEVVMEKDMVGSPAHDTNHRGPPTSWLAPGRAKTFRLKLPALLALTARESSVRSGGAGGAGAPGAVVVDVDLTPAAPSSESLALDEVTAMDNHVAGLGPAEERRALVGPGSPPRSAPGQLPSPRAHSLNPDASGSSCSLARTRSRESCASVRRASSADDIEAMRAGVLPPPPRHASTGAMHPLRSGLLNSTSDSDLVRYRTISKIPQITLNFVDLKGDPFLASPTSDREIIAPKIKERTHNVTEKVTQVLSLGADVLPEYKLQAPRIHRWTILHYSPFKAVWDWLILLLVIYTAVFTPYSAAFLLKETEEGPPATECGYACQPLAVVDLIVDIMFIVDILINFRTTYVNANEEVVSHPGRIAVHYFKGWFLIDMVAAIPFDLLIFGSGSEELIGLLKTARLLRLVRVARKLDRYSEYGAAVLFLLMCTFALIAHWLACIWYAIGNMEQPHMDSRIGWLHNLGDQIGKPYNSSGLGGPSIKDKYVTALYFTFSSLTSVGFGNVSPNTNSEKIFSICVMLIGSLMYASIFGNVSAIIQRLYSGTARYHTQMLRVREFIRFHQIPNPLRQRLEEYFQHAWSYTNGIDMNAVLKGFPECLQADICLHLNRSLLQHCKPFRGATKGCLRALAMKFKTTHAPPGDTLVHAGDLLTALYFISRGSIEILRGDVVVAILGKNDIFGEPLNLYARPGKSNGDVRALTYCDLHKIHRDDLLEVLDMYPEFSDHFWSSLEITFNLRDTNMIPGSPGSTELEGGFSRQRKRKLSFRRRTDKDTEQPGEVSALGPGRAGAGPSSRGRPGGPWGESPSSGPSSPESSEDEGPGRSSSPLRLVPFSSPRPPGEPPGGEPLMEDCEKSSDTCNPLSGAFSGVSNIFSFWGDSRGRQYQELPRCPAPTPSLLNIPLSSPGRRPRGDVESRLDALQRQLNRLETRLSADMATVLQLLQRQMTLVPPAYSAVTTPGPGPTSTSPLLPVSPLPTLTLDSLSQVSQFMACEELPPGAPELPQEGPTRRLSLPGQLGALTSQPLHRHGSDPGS
Experimental: Blockade of K^+-channel conductance in the heart is associated with cardiotoxicity in the form of QT-wave prolongation. The affinity (Ki) of the exemplified nociceptin receptor antagonists for the human ERG (hERG) K^+ channel is determined in HEK293 cells expressing cloned hERG using the hERG channel antagonist radioligand [3H]astemizole (2 nM final assay concentration) according to well known procedures (see for example Finlayson K, et al. (Eur J Pharmacol. 412(3):203-12, 2001) [3H]Astemizole binding assays are performed at the contract research company Cerep (Paris France) according to standard procedures.

[3] = molecular target: T2, cloned human ORL1 receptors (Homo sapiens, UniProt P41146); experiment: [3H]-OFQ/nociceptin receptor binding assay
T2 construct: expressed in transfected cells; host or cells: CHO cells (membranes)
T2 sequence (P41146 whole entry): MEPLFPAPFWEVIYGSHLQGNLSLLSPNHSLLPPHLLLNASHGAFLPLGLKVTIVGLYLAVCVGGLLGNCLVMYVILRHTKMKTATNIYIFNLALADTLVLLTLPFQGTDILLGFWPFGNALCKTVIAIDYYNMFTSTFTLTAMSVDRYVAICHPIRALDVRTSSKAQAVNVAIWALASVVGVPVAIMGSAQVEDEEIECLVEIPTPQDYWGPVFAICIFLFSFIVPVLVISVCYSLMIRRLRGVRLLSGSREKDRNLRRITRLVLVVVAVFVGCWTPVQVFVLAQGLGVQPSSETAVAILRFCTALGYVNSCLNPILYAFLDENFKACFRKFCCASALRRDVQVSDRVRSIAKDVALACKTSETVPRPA
Experimental: as §1

[4] = molecular target: T3, nociceptin/ORL1 receptors (Rattus norvegicus, UniProt P35370); experiment: In vivo receptor occupancy (LC/MS/MS, RO Tracer) in hypothalamus; conditions: oral 3 mg/kg dose after 6 hr.
T3 construct: rats are sacrificed by cervical dislocation and the hypothalamus is removed; from tissue; host or cells: rat hypothalamus (in vivo occupancy)
T3 sequence (P35370 whole entry): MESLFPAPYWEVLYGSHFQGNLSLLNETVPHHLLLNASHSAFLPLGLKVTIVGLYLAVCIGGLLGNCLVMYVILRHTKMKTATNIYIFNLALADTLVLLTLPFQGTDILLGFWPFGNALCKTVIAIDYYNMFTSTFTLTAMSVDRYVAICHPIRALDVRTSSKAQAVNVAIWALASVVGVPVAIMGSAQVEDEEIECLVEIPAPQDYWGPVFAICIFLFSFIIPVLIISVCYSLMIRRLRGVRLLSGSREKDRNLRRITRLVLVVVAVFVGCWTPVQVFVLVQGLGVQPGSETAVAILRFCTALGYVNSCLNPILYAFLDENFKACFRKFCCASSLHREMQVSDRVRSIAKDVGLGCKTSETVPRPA

[5] = tested on: wild type and ORL knockout mice; experiment: Blockade of fasting-induced hyperphagia in mice; type: in vivo, mouse; conditions: wild type mice, oral gavage 30 min. prior to food, food intake 1 hr
Source text: Blockade of fasting-induced hyperphagia in rats is an accepted model for hyperphagic eating disorders. […] Mice are individually housed a minimum of 3 days prior to the onset of testing to eliminate any effects of stress due to the change from group to individual housing. Three mice/genotype are randomly assigned to each treatment group on the test day. Pre-fast body weight measurements are taken, and food is then removed from cages overnight. Mice are fasted for approximately 15 hr. The next morning, the mice are given one of three doses of drug or vehicle via oral gavage 30 min. prior to gaining access to food. Drugs are dissolved in 20% Captisol dissolved in 25 mM phosphate buffer, pH 2.0. Measurements of body weight are taken immediately prior to drug treatment or 24 hr. after access to food is restored. […] Measurements of food intake are recorded 1 hr following access to food, as indicated, by weight of food remaining at 1 hr. It should be noted that food intake measured is during the light phase, a time during which mice are typically at rest and not normally eating. Following initial testing, mice are rested for 1 week with access to unlimited chow.

T1 sequence (P41146 whole entry): as the sequence (P41146 whole entry) above

**Q.** What does the source list for OCc1nn(-c2c(F)cccc2F)cc1CN1CCC2(CC1)OCC(F)(F)c1cc(Cl)sc12 [Example 50, [4-[(2-Chloro-4,4-difluoro-spiro[5H-thieno[2,3-c]pyran-7,4′-piperidine]-1′-yl)methyl]-1-(2,6-difluorophenyl)pyrazol-3-yl]methanol]?
**A.** Kb [1]: 0.00054 µM; Ki (5-HT2A): > 5 µM; Ki (5-HT1F): > 8.52 µM; Ki (5-HT2B): 0.0429 µM; Ki (5-HT1D): > 8.55 µM; Ki (5-HT4): > 4.12 µM; Ki (5-HT2C): 4.75 µM; Ki (5-HT6): > 5.83 µM; Ki (5-HT1B): > 3.58 µM; Ki (5-HT5): > 9.09 µM; Ki (5-HT1E): > 5.37 µM; Ki (5-HT7): > 3.98 µM; Ki [2]: 7 µM; Ki [3]: 0.00089 µM; receptor occupancy at 3 mg/kg [4]: 81%; fasting-induced hyperphagia [5]: substantially block fasting-induced hyperphagia
